The record followed here is ChEMBL document CHEMBL1135981, “Designing analogues of mini atrial natriuretic peptide based on structural analysis by NMR and restrained molecular dynamics” (J Med Chem, 2002).

For this assay, the system named is CHO. The assay can be described thus: Evaluated for Biological activity, 50% effective concentration determined by its ability to produce cGMP. Type of assay: functional, cell-based. The note with it: Cricetulus griseus.
Broadly, the EC50 is the concentration at which the effect is half-maximal. The low end stands for an effect from little substance, the high end for a need for much substance. With `CC[C@H](C)[C@@H]1NC(=O)[C@H](CCCN=C(N)N)NC(=O)[C@H](CC(=O)O)NC(=O)[C@H](CCSC)NC(=O)[C@H](CCCN=C(N)N)NC(=O)[C@@H](C)NC(=O)[C@@H](C)NC(=O)[C@H](Cc2ccccc2)NC(=O)[C@H](Cc2c[nH]cn2)NC(=O)[C@@H](NC(=O)[C@@H](N)CCSC)CSSC[C@@H](C(=O)N[C@@H](Cc2ccc(O)cc2)C(=O)N[C@@H](CCCN=C(N)N)C(N)=O)NC(=O)[C@H](CO)NC1=O`, the midpoint of the response, the EC50, lay at 1.31 nM.

Take `CC[C@H](C)[C@@H]1NC(=O)[C@H](CCCN=C(N)N)NC(=O)[C@H](CC(=O)O)NC(=O)[C@H](CCSC)NC(=O)[C@H](CCCN=C(N)N)NC(=O)CNC(=O)[C@@H](C)NC(=O)[C@H](Cc2ccccc2)NC(=O)[C@H](Cc2c[nH]cn2)NC(=O)[C@@H](NC(=O)[C@@H](N)CCSC)CSSC[C@@H](C(=O)N[C@@H](Cc2ccc(O)cc2)C(=O)N[C@@H](CCCN=C(N)N)C(N)=O)NC(=O)[C@H](CO)NC1=O`: the EC50 is 0.176 nM. Compared with the last compound, the EC50 is about 7.4-fold lower. With `CC[C@H](C)[C@@H]1NC(=O)[C@H](CCCN=C(N)N)NC(=O)[C@H](CC(=O)O)NC(=O)[C@H](CCSC)NC(=O)[C@H](CCCN=C(N)N)NC(=O)[C@@H](C)NC(=O)CNC(=O)[C@H](Cc2ccccc2)NC(=O)[C@H](Cc2c[nH]cn2)NC(=O)[C@@H](NC(=O)[C@@H](N)CCSC)CSSC[C@@H](C(=O)N[C@@H](Cc2ccc(O)cc2)C(=O)N[C@@H](CCCN=C(N)N)C(N)=O)NC(=O)[C@H](CO)NC1=O`, a half-maximal effect (EC50) was put at 3.76 nM. This EC50 lies about 21-fold higher than the previous one.
